Measured values taken from ChEMBL document CHEMBL3885881, “DrugMatrix”.

Organism: Rattus norvegicus
Experiment: DrugMatrix - Regimen: Daily Repeat
Format: toxicity, organism-based, Sprague-Dawley
Set-up: regimen Daily Repeat, gender Male, age 6-8 weeks
Conditions: in vivo, po, route oral GAVAGE, […]; for ABSOLUTE BASOPHIL / ABSOLUTE EOSINOPHIL / ABSOLUTE LYMPHOCYTE / ABSOLUTE MONOCYTE / ABSOLUTE SEGMENTED NEUTROPHIL / BASOPHIL / EOSINOPHIL / ERYTHROCYTE COUNT / HEMATOCRIT / HEMOGLOBIN / LEUKOCYTE COUNT / LYMPHOCYTE / MEAN CORPUSCULAR HEMOGLOBIN / MEAN CORPUSCULAR HEMOGLOBIN CONCENTRATION / MEAN CORPUSCULAR VOLUME / MONOCYTE / NEUTROPHIL / NUCLEATED RED BLOOD CELLS / PLATELET COUNT: tissue Blood; for ALANINE AMINOTRANSFERASE / ALKALINE PHOSPHATASE / ASPARTATE AMINOTRANSFERASE / BLOOD UREA NITROGEN / CARBON DIOXIDE / CHLORIDE / CHOLESTEROL / CREATINE PHOSPHOKINASE / CREATININE / GLUCOSE / LACTATE DEHYDROGENASE / LIPASE / PHOSPHORUS / POTASSIUM / SODIUM / TOTAL BILIRUBIN / TOTAL PROTEIN / URIC ACID: tissue Plasma
[1] = 22 mg/kg, 120 h, dose level High, time 5 day
[2] = 72 h, dose 2.5 mg/Kg, dose level Low, time 3 day
[3] = 120 h, dose 2.5 mg/Kg, dose level Low, time 5 day

With `OCCN1CCN(CCCN2c3ccccc3Sc3ccc(C(F)(F)F)cc32)CC1` [FLUPHENAZINE] the “ABSOLUTE BASOPHIL” value [1] was 0 CELLS/uL, the “ABSOLUTE EOSINOPHIL” value [1] was 112 CELLS/uL and the “ABSOLUTE LYMPHOCYTE” value [1] was 12846 CELLS/uL. The “ABSOLUTE MONOCYTE” value [1] was 29.33 CELLS/uL, the “ABSOLUTE SEGMENTED NEUTROPHIL” value [1] was 379.33 CELLS/uL and the BASOPHIL [1] was 0%. The EOSINOPHIL [1] was 1.33%, the “ERYTHROCYTE COUNT” value [1] was 6.02 x10E6/uL and the HEMATOCRIT [1] was 36.97%. The HEMOGLOBIN [1] was 14.2 G/DL, the “LEUKOCYTE COUNT” value [1] was 13.37 x10E3/uL and the LYMPHOCYTE [1] was 95%. For the same molecule, the “MEAN CORPUSCULAR HEMOGLOBIN” value [1] was 23.6 pg, the “MEAN CORPUSCULAR HEMOGLOBIN CONCENTRATION” value [1] was 38.43 G/DL and the “MEAN CORPUSCULAR VOLUME” value [1] was 61.37 fL. The MONOCYTE [1] was 0.33%, the NEUTROPHIL [1] was 3.33% and the “NUCLEATED RED BLOOD CELLS” value [1] was 0 /100WBC. The “PLATELET COUNT” value [1] was 1170.67 x10E3/uL, the “ALANINE AMINOTRANSFERASE” value [1] was 39.33 u/L and the “ALKALINE PHOSPHATASE” value [1] was 322.67 u/L. For the same molecule, the “ASPARTATE AMINOTRANSFERASE” value [1] was 67.67 u/L, the “BLOOD UREA NITROGEN” value [1] was 15.67 mg/dL and the “CARBON DIOXIDE” value [1] was 26.67 mmol/L. For the same molecule, the CHLORIDE [1] was 101.33 MEQ/L, the CHOLESTEROL [1] was 61.33 mg/dL and the “CREATINE PHOSPHOKINASE” value [1] was 190.33 u/L. The CREATININE [1] was 0.13 mg/dL, the GLUCOSE [1] was 198.67 mg/dL and the “LACTATE DEHYDROGENASE” value [1] was 80.67 u/L. For the same molecule, the LIPASE [1] was 9.67 u/L, the PHOSPHORUS [1] was 9.4 mg/dL and the POTASSIUM [1] was 5.22 MEQ/L. For the same molecule, the SODIUM [1] was 144.73 MEQ/L, the “TOTAL BILIRUBIN” value [1] was 0.2 mg/dL and the “TOTAL PROTEIN” value [1] was 6.13 G/DL. The “URIC ACID” value [1] was 0.77 mg/dL, the “ABSOLUTE BASOPHIL” value [2] was 0 CELLS/uL and the “ABSOLUTE EOSINOPHIL” value [2] was 0 CELLS/uL. The “ABSOLUTE LYMPHOCYTE” value [2] was 6619.33 CELLS/uL, the “ABSOLUTE MONOCYTE” value [2] was 22 CELLS/uL and the “ABSOLUTE SEGMENTED NEUTROPHIL” value [2] was 525.33 CELLS/uL. The BASOPHIL [2] was 0%, the EOSINOPHIL [2] was 0% and the “ERYTHROCYTE COUNT” value [2] was 5.21 x10E6/uL. For the same molecule, the HEMATOCRIT [2] was 33.8%, the HEMOGLOBIN [2] was 13.13 G/DL and the “LEUKOCYTE COUNT” value [2] was 7.17 x10E3/uL. The LYMPHOCYTE [2] was 92.33%, the “MEAN CORPUSCULAR HEMOGLOBIN” value [2] was 25.2 pg and the “MEAN CORPUSCULAR HEMOGLOBIN CONCENTRATION” value [2] was 38.83 G/DL. For the same molecule, the “MEAN CORPUSCULAR VOLUME” value [2] was 64.97 fL, the MONOCYTE [2] was 0.33% and the NEUTROPHIL [2] was 7.33%. The “NUCLEATED RED BLOOD CELLS” value [2] was 0 /100WBC, the “PLATELET COUNT” value [2] was 973 x10E3/uL and the “ALANINE AMINOTRANSFERASE” value [2] was 49.67 u/L. The “ALKALINE PHOSPHATASE” value [2] was 458.33 u/L, the “ASPARTATE AMINOTRANSFERASE” value [2] was 79.67 u/L and the “BLOOD UREA NITROGEN” value [2] was 13.33 mg/dL. For the same molecule, the “CARBON DIOXIDE” value [2] was 33.67 mmol/L, the CHLORIDE [2] was 99.5 MEQ/L and the CHOLESTEROL [2] was 74 mg/dL. The “CREATINE PHOSPHOKINASE” value [2] was 223.67 u/L, the CREATININE [2] was 0.14 mg/dL and the GLUCOSE [2] was 142.33 mg/dL. The “LACTATE DEHYDROGENASE” value [2] was 61.33 u/L, the LIPASE [2] was 13.67 u/L and the PHOSPHORUS [2] was 9.77 mg/dL. For the same molecule, the POTASSIUM [2] was 6.34 MEQ/L, the SODIUM [2] was 144.3 MEQ/L and the “TOTAL BILIRUBIN” value [2] was 0.13 mg/dL. For the same molecule, the “TOTAL PROTEIN” value [2] was 5.33 G/DL, the “URIC ACID” value [2] was 0.6 mg/dL and the “ABSOLUTE BASOPHIL” value [3] was 0 CELLS/uL. For the same molecule, the “ABSOLUTE EOSINOPHIL” value [3] was 0 CELLS/uL, the “ABSOLUTE LYMPHOCYTE” value [3] was 9833.67 CELLS/uL and the “ABSOLUTE MONOCYTE” value [3] was 155 CELLS/uL. The “ABSOLUTE SEGMENTED NEUTROPHIL” value [3] was 711.33 CELLS/uL, the BASOPHIL [3] was 0% and the EOSINOPHIL [3] was 0%. For the same molecule, the “ERYTHROCYTE COUNT” value [3] was 5.5 x10E6/uL, the HEMATOCRIT [3] was 35.1% and the HEMOGLOBIN [3] was 13.53 G/DL. For the same molecule, the “LEUKOCYTE COUNT” value [3] was 10.7 x10E3/uL, the LYMPHOCYTE [3] was 91.67% and the “MEAN CORPUSCULAR HEMOGLOBIN” value [3] was 24.63 pg. The “MEAN CORPUSCULAR HEMOGLOBIN CONCENTRATION” value [3] was 38.57 G/DL, the “MEAN CORPUSCULAR VOLUME” value [3] was 63.83 fL and the MONOCYTE [3] was 1%. For the same molecule, the NEUTROPHIL [3] was 7.33%, the “NUCLEATED RED BLOOD CELLS” value [3] was 0 /100WBC and the “PLATELET COUNT” value [3] was 1129.67 x10E3/uL. For the same molecule, the “ALANINE AMINOTRANSFERASE” value [3] was 57 u/L, the “ALKALINE PHOSPHATASE” value [3] was 337 u/L and the “ASPARTATE AMINOTRANSFERASE” value [3] was 75 u/L. The “BLOOD UREA NITROGEN” value [3] was 15 mg/dL, the “CARBON DIOXIDE” value [3] was 28 mmol/L and the CHLORIDE [3] was 99 MEQ/L. For the same molecule, the CHOLESTEROL [3] was 72 mg/dL, the “CREATINE PHOSPHOKINASE” value [3] was 195.33 u/L and the CREATININE [3] was 0.18 mg/dL. The GLUCOSE [3] was 180 mg/dL, the “LACTATE DEHYDROGENASE” value [3] was 77.33 u/L and the LIPASE [3] was 10.67 u/L. For the same molecule, the PHOSPHORUS [3] was 9.47 mg/dL, the POTASSIUM [3] was 4.99 MEQ/L and the SODIUM [3] was 144.87 MEQ/L. The “TOTAL BILIRUBIN” value [3] was 0.23 mg/dL, the “TOTAL PROTEIN” value [3] was 6.1 G/DL and the “URIC ACID” value [3] was 0.5 mg/dL.
